The target of data set [1] is T1, human A1AR (Homo sapiens, UniProt P30542).
T1 construct: purchased Perkin Elmer ES-010-M400UA
T1 sequence (P30542 1-326): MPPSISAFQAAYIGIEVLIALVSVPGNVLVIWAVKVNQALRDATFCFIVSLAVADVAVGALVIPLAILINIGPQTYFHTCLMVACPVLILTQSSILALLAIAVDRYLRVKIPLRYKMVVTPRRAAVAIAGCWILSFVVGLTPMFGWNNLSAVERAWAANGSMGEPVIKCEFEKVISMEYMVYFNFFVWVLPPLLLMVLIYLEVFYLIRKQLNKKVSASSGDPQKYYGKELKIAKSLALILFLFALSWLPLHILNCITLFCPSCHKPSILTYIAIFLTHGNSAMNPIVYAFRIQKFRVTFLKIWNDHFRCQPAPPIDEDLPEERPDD
As to the kind of experiment: Competitive radioligand binding vs [3H]CCPA. Particulars: for Ki: apparent Ki for irreversibly binding ligands, three independent experiments, read-out: A1AR vs. Radioligand [3H]CCPA Ki ± SEM. The text has this: (§1) The potentially irreversible xanthine derivatives were investigated for their binding affinity at human A2BARs and for their selectivity versus the other human AR subtypes, A1, A2A, and A3, by competitive radioligand binding experiments.
(§2) The human A2AAR, the mutant human A2BAR (K269^7.32L), and the human A3AR were transiently expressed in FreeStyle^TM CHO-S cells using the transfection reagent polyethylenimine (PEI) at a ratio of 1:3 to DNA according to the manufacturer’s guideline. pcDNA3.1(+) was used as the transfection vector containing the cDNA for either the wt ARs or the K269^7.32L mutant A2BAR that was prepared by site-directed mutagenesis with the following primer: forward […], reverse […]. CHO-S cells were grown in FreeStyle^TM CHO Expression Medium supplemented with 8 mM L-glutamine before use and split to 0.5 mio. cells per mL the day before transfection. Twenty-four hours after transfection, cells were spun down by centrifugation for 15 min at 500× g. Cells were disrupted by resuspension in 5 mM tris(hydroxymethyl)aminomethane buffer (Tris, pH 7.4) containing 2 mM ethyl-ene¬diaminetetraacetic acid (EDTA) with subsequent homogenization using an Ultra-Turrax homogenizer. The cell suspension was centrifuged for 10 min at 1000× g and the obtained supernatant was pelleted by centrifugation for 60 min at 48,000× g. The supernatant was discarded and the pellet washed with 50 mM Tris (pH 7.4). After centrifugation for at least 30 min at 48,000× g, the pellet was resuspended in 50 mM Tris (pH 7.4), aliquoted and stored at −80 °C for further use. All centrifugation steps were carried out at 4 °C. Membrane preparations of the human wt A1AR and the human wt A2BAR were purchased from Perkin Elmer (Perkin-Elmer, Waltham, MA, USA) (catalogue numbers ES-010-M400UA and ES-013-M400UA).
(§3) Binding experiments were performed using 50 mM Tris buffer (pH 7.4) in a total volume of 400 µL for the A1AR, A2AAR, A3AR, and 1000 µL for the A2BAR. Initial screening was carried out in two independent experiments at 1 µM. Competition of compounds versus [^3H]CCPA (A1AR, final concentration 1 nM), [^3H]MSX-2 (A2AAR, final concentration 1 nM), [^3H]PSB-603 (A2BAR, final concentration 0.3 nM) and [^3H]PSB-11 (A3AR, final concentration 1 nM) was investigated. An amount of 7.5–25 µg of total protein per well was employed, incubated with 2 U of adenosine deaminase per mL beforehand. Non-specific binding was determined in the presence of 10 µM of 2-chloroadenosine, 10 µM of CGS 15943, 10 µM of 8-cyclopently-1,3-dipropylxanthine or 100 µM of (R)-N^6-phenylisopropyadenosine for A1-, A2A-, A2B- and A3ARs, respectively. Competition association experiments (at 25 °C) were performed in the same way but the protein was added delayed at indicated time points and the cell membranes were harvested after 1 min. Incubation was terminated by rapid filtration through GF/B glass fiber filters (Whatman) using a 48-well harvester (Brandel) after 90 (A1AR), 30 (A2AAR), 75 (A2BAR), and 45 min (A3AR) of incubation, respectively. Filters were pre-incubated with 0.3% (w/v) of PEI for 30–60 min in case of the A2AAR assay. Filters were rinsed three times with ice-cold 50 mM Tris, pH 7.4 (supplemented with 0.1% (w/v) bovine serum albumin for the A2BAR) and transferred into scintillation vials. Filters were then incubated with 2.5 mL of scintillation cocktail (ProSafe FC plus) for at least 6 h. Subsequently, radioactivity was determined using a liquid scintillation counter (Tricarb 2810TR, Perkin Elmer).

In data set [2] the target is T2, human A2AAR (Homo sapiens, UniProt P29274).
T2 construct: expressed in transfected cells; host or cells: FreeStyle CHO-S cells, pcDNA3.1(+), transient
As to the kind of experiment: Competitive radioligand binding vs [3H]MSX-2. The settings on record: for Ki: apparent Ki for irreversibly binding ligands, three independent experiments, read-out: A2AAR vs. Radioligand [3H]MSX-2 Ki ± SEM.
Source text: as §1, §2, §3

Data set [3] deals with T3, human A3AR (Homo sapiens, UniProt P0DMS8).
T3 construct: expressed in transfected cells; host or cells: FreeStyle CHO-S cells, pcDNA3.1(+), transient
T3 sequence (P0DMS8 1-318): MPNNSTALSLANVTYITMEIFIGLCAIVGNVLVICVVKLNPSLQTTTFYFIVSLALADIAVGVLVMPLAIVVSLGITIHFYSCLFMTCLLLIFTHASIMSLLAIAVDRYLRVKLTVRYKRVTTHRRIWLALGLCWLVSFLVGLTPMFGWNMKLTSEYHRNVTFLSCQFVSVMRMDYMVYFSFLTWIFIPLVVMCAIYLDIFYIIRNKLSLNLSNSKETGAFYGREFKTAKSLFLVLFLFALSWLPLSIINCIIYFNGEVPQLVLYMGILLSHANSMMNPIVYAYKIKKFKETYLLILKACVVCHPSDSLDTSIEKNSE
The data set is described as follows: Competitive radioligand binding vs [3H]PSB-11. The settings on record: for Ki: three independent experiments, read-out: A3AR vs. Radioligand [3H]PSB-11 Ki ± SEM.
Source text: as §1, §2, §3

For data set [4], the target named is T4, A2BAR (Homo sapiens, UniProt P29275).
T4 sequence (P29275 1-332): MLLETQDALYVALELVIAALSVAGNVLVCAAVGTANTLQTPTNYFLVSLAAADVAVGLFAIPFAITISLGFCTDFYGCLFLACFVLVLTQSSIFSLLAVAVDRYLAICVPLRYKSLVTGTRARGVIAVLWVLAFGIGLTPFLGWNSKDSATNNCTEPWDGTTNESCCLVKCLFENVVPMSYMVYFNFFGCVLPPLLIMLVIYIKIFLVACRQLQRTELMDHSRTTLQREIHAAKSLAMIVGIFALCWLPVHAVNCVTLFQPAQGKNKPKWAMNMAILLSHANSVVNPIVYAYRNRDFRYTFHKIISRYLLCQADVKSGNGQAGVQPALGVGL
The data set is described as follows: Competitive radioligand binding vs [3H]PSB-603. Further details: purchased Perkin Elmer ES-013-M400UA.
Source text: as §1, §2, §3

T2 sequence (P29274 whole entry): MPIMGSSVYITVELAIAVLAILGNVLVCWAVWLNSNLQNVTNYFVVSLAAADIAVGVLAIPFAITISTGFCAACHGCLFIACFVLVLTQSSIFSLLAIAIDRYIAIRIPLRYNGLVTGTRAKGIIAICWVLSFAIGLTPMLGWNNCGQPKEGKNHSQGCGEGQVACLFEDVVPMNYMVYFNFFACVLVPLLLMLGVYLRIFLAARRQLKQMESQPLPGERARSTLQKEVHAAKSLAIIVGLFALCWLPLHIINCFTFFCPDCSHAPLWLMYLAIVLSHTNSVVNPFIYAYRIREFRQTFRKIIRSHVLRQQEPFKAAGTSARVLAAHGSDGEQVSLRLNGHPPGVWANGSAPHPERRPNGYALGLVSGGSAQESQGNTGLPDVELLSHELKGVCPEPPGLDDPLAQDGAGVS

For the molecule `CCCn1c(=O)[nH]c2nc(-c3ccc(S(=O)(=O)F)cc3)[nH]c2c1=O` [6a, 4-(2,6-Dioxo-1-propyl-2,3,6,7-tetrahydro-1H-purin-8-yl)benzenesulfonyl fluoride], the melting point was more than 300 °C. For the same molecule, the Ki in data set [1] is 406 ± 194 nM. In addition, in data set [2], the “A2AAR vs. Radioligand [3H]MSX-2 % inhibition at 1 µM” value is reported as 53% and the Ki is approximately 1000 nM. Further, in data set [3], the “A3AR vs. Radioligand [3H]PSB-11 % inhibition at 1 µM” value worked out at 27% and the Ki was more than 1000 nM. The molecule further displayed a Ki in data set [4] of 10.6 ± 0.9 nM. Moreover, in data set [4] (from Ki values), the “A2B selectivity versus the A1AR” value stood at 38 fold and the “A2B selectivity versus the other AR subtypes” value is reported as more than 38 fold. Further, the “Potency difference at A2BAR versus PSB-1115” value in data set [4] (more potent than PSB-1115) came to 14 fold.
In turn, `CCCn1c(=O)c2[nH]c(-c3ccc(S(=O)(=O)F)cc3)nc2n(C)c1=O` [6b, 4-(3-Methyl-2,6-dioxo-1-propyl-2,3,6,7-tetrahydro-1H-purin-8-yl)benzenesulfonyl fluoride] yielded a melting point of more than 300 °C. In data set [1], the Ki is 293 ± 92 nM. Moreover, the Ki in data set [2] amounted to 372 ± 48 nM. In data set [3], the “A3AR vs. Radioligand [3H]PSB-11 % inhibition at 1 µM” value was 13% and the Ki is more than 1000 nM. The molecule also registered a Ki in data set [4] of 15.9 ± 1 nM. Further, the “A2B selectivity versus the other AR subtypes” value in data set [4] (from Ki values) is reported as more than 18 fold.
Turning to `CCCn1c(=O)c2[nH]c(-c3ccc(S(=O)(=O)F)cc3)nc2n(C2CC2)c1=O` [6c, 4-(3-Cyclopropyl-2,6-dioxo-1-propyl-2,3,6,7-tetrahydro-1H-purin-8-yl)benzenesulfonyl fluoride], the melting point is more than 300 °C. Further, the Ki in data set [1] is 41.5 ± 2.8 nM. Besides, the Ki in data set [2] amounted to 72.9 ± 8.1 nM. Further, in data set [3], the “A3AR vs. Radioligand [3H]PSB-11 % inhibition at 1 µM” value was determined as 33% and the Ki is more than 1000 nM. In data set [4], the Ki came out at 26 ± 2.8 nM.
As to `CCCn1c(=O)[nH]c2nc(-c3ccc(S(=O)(=O)N4CCC(NC(=O)c5ccc(S(=O)(=O)F)cc5)CC4)cc3)[nH]c2c1=O` [compound 12, 4-((1-((4-(2,6-Dioxo-1-propyl-2,3,6,7-tetrahydro-1H-purin-8-yl)phenyl)sulfonyl)piperidin-4-yl)carbamoyl)benzenesulfonyl fluoride], the “A1AR vs. Radioligand [3H]CCPA % inhibition at 1 µM” value in data set [1] (1 µM) is given as 22%. Moreover, the Ki in data set [1] is more than 1000 nM; in data set [2], more than 1000 nM; in data set [3] it was more than 1000 nM; in data set [4] it was 7.37 ± 0.83 nM. Also, in data set [2], the “A2AAR vs. Radioligand [3H]MSX-2 % inhibition at 1 µM” value is recorded as 32%. Moreover, in data set [3], the “A3AR vs. Radioligand [3H]PSB-11 % inhibition at 1 µM” value was 15%. Besides, in data set [4] (from Ki values), the “A2B selectivity versus the other AR subtypes” value is “more than two orders of magnitude”.

A word on the melting point: it is the temperature of the solid-liquid transition.

The values are drawn from publication PMC9231011, “Irreversible Antagonists for the Adenosine A2B Receptor” (Molecules, 2022).
